Test results taken from PubChem BioAssay AID179 (DTP/NCI, 2004).
Active and inactive are the calls of the source.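 The calls were made as follows: active = compounds giving half or more protection of infected cells from virus-caused growth loss, again on retest; inactive = the rest.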

Test system: CEM cells HIV-1 protection, formazan growth assay
Assay: NCI AIDS Antiviral Assay
Conditions: for IC50: measured here: growth of uninfected CEM cells
Procedure, shortened: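 Human CEM cells, uninfected and HIV-1-infected, exposed to five drug concentrations; growth measured by soluble formazan assay and scored as percent protection from infection, with protecting compounds retested.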

| SMILES | outcome | EC50 [µM] | IC50 [µM] |
| --- | --- | --- | --- |
| O=C1c2c(O)ccc(O)c2C(=O)c2c(NCCCCCO)ccc(NCCCCCO)c21 | inactive | – | – |
| O=c1c(-c2ccccc2)nc2ccccc2n1CC1CCCN2CCCC[C@H]12 (stereo not given in full) | – | > 200 | 39.8 |
| Clc1cccc(C2ON=C(c3ccccc3)N2C23CC4CC(CC(C4)C2)C3)c1Cl (stereo not given) | – | > 200 | > 200 |
| FC1(F)ON2CCc3ccccc3C2[C@H]1c1ccccc1 (stereo not given in full) | – | > 200 | 15.5 |
| Cc1cc(O)c2c(c1)C(=O)C=C(Br)C2=O | – | > 100 | 1.58 |
| COC(=O)CCCCC(c1cc(Cl)c(OC)c(C(=O)OC)c1)c1cc(Cl)c(OC)c(C(=O)OC)c1 | – | > 200 | 13.5 |
| C/C(=N/NC(=O)C[n+]1ccccc1)C(CN(CC(C)C)CC(C)C)C(=O)Nc1ccc(C)cc1C (stereo not given) | – | > 14.1 | > 14.1 |
| CCOc1ccc(NC(=O)/C(=C\c2ccc(C)cc2)C(C)=O)cc1 | inactive | – | – |
| CCc1c(Cc2ccccc2)n(COCC[Se]c2ccccc2)c(=O)[nH]c1=O | – | 4.27 | 28.8 |
| CCOCC(=O)N(C)c1cccc2c3c(n(C)c12)CCCCC3 | inactive | – | – |
| O=[N+]([O-])c1cc(S(=O)(=O)c2ccc(S)c([N+](=O)[O-])c2)ccc1S | inactive | – | – |
| O=c1c2ccccc2sc2ccccc12 | – | > 200 | > 200 |
| O=C1c2cccc3cc([N+](=O)[O-])cc(c23)C(=O)N1Cc1ccccc1 | – | > 200 | 5.75 |
| N[C@H](C(=O)O)[C@@H]1CC(Cl)=NO1 | – | > 15.1 | > 15.1 |
| O=C(O)c1cccc[c]1[Sb](=[O])([OH])[OH] | – | > 200 | 87.1 |
| CCOC(=O)Cn1c(=O)c2nc(SC)sc2n(CC)c1=S | inactive | – | – |
| CCOC(=O)c1cc2c([nH]1)c(OC(C)=O)cc1c2ccn1Cc1ccccc1 | – | > 200 | > 200 |
| Cc1cn(C2CC(C)N(CCO)O2)c(=O)[nH]c1=O (stereo not given) | – | > 200 | > 200 |
| OC1(c2cccc3ccccc23)CCCc2cc3c(ccc4ccccc43)cc21 (stereo not given) | – | > 200 | 155 |
| CCC/C(=N\NC(=S)N1CCN(c2ccccn2)CC1)c1ccccn1 | – | > 19.5 | 0.011 |
| CCOC(=O)C1=C(C(=O)OCC)C2(c3ccccc3)N(O1)c1ccccc1C2(C)C (stereo not given) | inactive | – | – |

| SMILES | outcome | EC50 [µM] | IC50 [µM] |
| --- | --- | --- | --- |
| Cc1ccc(Nc2c(C#N)[n+]([O-])c3cc(Cl)ccc3[n+]2[O-])cc1 | – | > 20 | 19.1 |
| O=C(Cc1ccccc1)NN1C(=O)C(Cl)C1c1cc(Br)cc(Br)c1O (stereo not given) | – | > 20.4 | 11.5 |
| CCCCc1c2c(nc3c1CCCC3=O)CCCC2 | – | > 195 | 28.8 |
| CC(=O)C1C(=O)C(=O)N(c2cccc([N+](=O)[O-])c2)C1=O (stereo not given) | – | > 200 | > 200 |
| Cc1ccc(C)n1-n1c(Cc2ccc(Cl)cc2)n[nH]c1=O | – | > 200 | 50.1 |
| COc1cc(CN=c2nc(N(C)C)ss2)cc(OC)c1OC | – | > 100 | 6.92 |
| Cc1ccc(/C=C2\CCOC2=O)cc1 | – | > 138 | > 138 |
| OC1(C23CC4CC(CC(C4)C2)C3)CSCC1(O)C12CC3CC(CC(C3)C1)C2 (stereo not given) | – | > 7.08 | > 7.08 |
| Cc1ccc(C)c2c1C/C(=C\c1ccccc1C(=O)O)C2=O | – | > 200 | 83.2 |
| COC(=O)C(Cc1nc2ccc(Cl)cc2[nH]c1=O)/C(=N/O)C(=O)Nc1cccc(Cl)c1C (stereo not given) | – | > 105 | > 105 |
| CCCCCCCCCCCCNC(=S)OC | inactive | – | – |
| CCn1nc(C)c2c1C(=O)NC(C)C(=O)N2 (stereo not given) | – | > 200 | > 200 |
| O=C1C2=C(C(=O)C3=C1C1CCC3C1)C1CCC2C1 | – | > 200 | 5.89 |
| CCCN(CCC)C(=O)c1c(N2CCN(C)CC2)c2cccnc2n2c(C)cnc12 | – | > 200 | > 200 |
| CCOC(=O)CCn1cnc(N)n1 | inactive | – | – |
| Cc1ccc(SSc2ccc(C)cc2C(=O)O)c(C(=O)O)c1 | – | > 200 | > 200 |
| COC(=O)[C@H](Cc1ccccc1)NC(=O)OCC1OC(n2cc(C)c(=O)[nH]c2=O)CC1N=[N+]=[N-] (stereo not given in full) | – | > 200 | > 200 |
| CN/N=C/c1c2c(O)c3c(O)c(C)c4c(c3c1O)C(=O)C(C)(O/C=C/C(OC)C(C)C(OC(C)=O)C(C)C(O)C(C)C(O)C(C)/C=C/C=C(/C)C(=O)N2)O4 (stereo not given) | – | > 200 | 26.3 |
| COC(=O)/C(C#N)=C\n1c(=S)[nH]c2ccccc21 | – | > 200 | > 200 |
| Cn1cc(NC(=O)Nc2cc(C(=O)Nc3cc(C(=O)Nc4cc(P(=O)(O)O)c5cccc(P(=O)(O)O)c5c4)n(C)c3)n(C)c2)cc1C(=O)Nc1cc(C(=O)Nc2cc(P(=O)(O)O)c3cccc(P(=O)(O)O)c3c2)n(C)c1 | – | 89.1 | 126 |
| S=c1n(-c2ccc(Cl)cc2)c2nc3ccccc3nc(/c2=N\Nc2ccccc2)n1-c1ccccn1 | – | > 37.2 | 29.5 |

| SMILES | outcome | EC50 [µM] | IC50 [µM] |
| --- | --- | --- | --- |
| COCn1c(C)c(C)c2c(=O)oc(N(C)C)nc21 | – | > 200 | 138 |
| CCOC(=O)C(C)c1nc2cc(F)c(N3CCOCC3)cc2[nH]c1=O (stereo not given) | – | > 200 | 95.5 |
| COCn1c2ccccc2c2nc(-c3ccncc3)nc(-c3ccncc3)c21 | – | > 3.98 | > 3.98 |
| CN(C)CCCNc1nnc(NCCCN(C)C)c2c(=O)c3sccc3[nH]c12 | – | > 20 | 2.69 |
| COC(=O)N1CC[C@]2(CC=C(C)C)c3ccccc3N(S(=O)(=O)c3ccccc3)[C@H]12 | – | > 100 | 24.5 |
| CSc1c(S(C)=O)[nH]c2cc(Br)cc(Br)c12 (stereo not given) | inactive | – | – |
| CCOC(=O)CCC1(CCC(=O)OCC)CCCCCCCCC(CCC(=O)OCC)(CCC(=O)OCC)C(=O)C1=O | – | > 200 | > 200 |
| COC1(C)C(=O)N(C)C1c1ccccc1 (stereo not given) | – | > 200 | > 200 |
| CC12OC3(O)C4C5CC(C6C5C3C61)C42 (stereo not given) | inactive | – | – |
| COCN1C(=O)[C@@H]2CCCN2C(=O)c2cc(N)ccc21 | – | > 200 | > 200 |
| CSc1nc2c(c(O)c(C)c(=O)n2C2OCC(OC(C)=O)C(OC(C)=O)C2OC(C)=O)c(=O)n1C (stereo not given) | – | > 70.8 | > 70.8 |
| CCC(=O)NC(Nc1ccc(O)cc1)(C(F)(F)F)C(F)(F)F | – | > 200 | 46.8 |
| CN(C)c1ccc(-c2c(C#N)c(N)[nH]c(=S)c2C#N)cc1 | – | > 126 | 50.1 |
| O=[N+]([O-])c1cc(/C=N\NS(=O)(=O)c2ccc(Cl)cc2)c(O)c([N+](=O)[O-])c1 | – | > 617 | 34.7 |
| C/C(=C\CNc1ncnc2c1ncn2CCC(=O)OC(C)(C)C)CO | – | > 200 | > 200 |
| CC1=NN(C(=O)CC(=O)Nc2cccc(C)c2)C(=O)C1N=Nc1ccc(S(=O)(=O)c2ccc(N=NC3C(=O)N(C(=O)CC(=O)Nc4cccc(C)c4)N=C3C)cc2)cc1 (stereo not given) | – | > 50.1 | > 50.1 |
| c1ccc(N2N=NC3C4CC(C32)C2C4N=NN2c2ccccc2)cc1 (stereo not given) | – | > 200 | > 200 |
| O=[N+]([O-])c1cccc(C2=NN(c3ccccc3)C3c4ccccc4OCC23)c1 (stereo not given) | – | > 7.41 | > 7.41 |
| N#Cc1c(-c2ccc([N+](=O)[O-])cc2)c(C#N)c(=O)n(NS(=O)(=O)c2ccccc2)c1-c1ccccc1 | – | > 200 | 36.3 |
| [O-][n+]1onc2c1CCC(=N\O)/C2=N/Nc1ccccc1 | – | > 200 | 155 |
| CC1CC(C#N)=C2NCCCCN2C1=O (stereo not given) | inactive | – | – |
